Source: publication PMC3823830 (Anesthesiology, 2013)
Entries after “also recorded” stand apart in the source; their conditions may differ. Where two headings read alike, the source gives them in different places.

Columns and labels:
[1] = tested on: P-gp; conditions: cited from earlier work
[2] = tested on: P-gp; conditions: mouse, in vivo; cited from earlier work
[3] = tested on: human P-gp; conditions: cited from earlier work
[4] = tested on: P-gp; conditions: humans; cited from earlier work
[5] = tested on: P-gp; conditions: P-gp-overexpressing cells; cited from earlier work
[6] = tested on: mdr1a (murine MDR1 homologue); conditions: cited from earlier work
[7] = Compartmental pharmacokinetic modeling of morphine and morphine glucuronides; type: in vivo, human; conditions: for Delay time (appearance of the metabolite in plasma): set at 0.01 h for M-3-G when not estimable; for VSS of morphine glucuronide: fixed at 0.2 × body mass (kg); for Vd / clearance: both, human, plasma, intravenous; for VC (central volume): constrained to be the same in both sessions
[8] = cited from earlier work
[9] = tested on: P-gp; conditions: bovine brain capillary cell P-gp-mediated transport; cited from earlier work
[10] = tested on: P-gp; conditions: rats; cited from earlier work
[11] = clinical; conditions: both, human, plasma, iv, 0.1 mg/kg
[12] = tested on: healthy volunteers; conditions: morphine 0.1 mg/kg
[13] = tested on: healthy volunteers; conditions: average; cyclosporine did not change this delay
[14] = tested on: healthy volunteers; assay: Pharmacokinetic-pharmacodynamic effect-site modeling of miosis; conditions: for Predicted maximum biophase concentration: model-predicted
[15] = with cyclosporine, median (range)

C=C[C@H]1C[N@@]2CC[C@H]1C[C@@H]2[C@@H](O)c1ccnc2ccc(OC)cc12 [Quinidine]
IC50 [1]: 3 µM | IC50 [2]: 36 µM | IC50 [3]: 34 µM

C/C=C/C[C@@H](C)C(=O)[C@H]1C(=O)N[C@@H](C(C)C)C(=O)N(C)CC(=O)N(C)[C@@H](CC(C)C)C(=O)N[C@@H](C(C)C)C(=O)N(C)[C@@H](CC(C)C)C(=O)N[C@@H](C)C(=O)N[C@H](C)C(=O)N(C)[C@@H](CC(C)C)C(=O)N(C)[C@@H](CC(C)C)C(=O)N(C)[C@@H](C(C)C)C(=O)N1C [PSC833]
Effect on morphine-related respiratory depression (and drowsiness) [4]: did not significantly change; also recorded: no effect

CN(C)C(=O)C(CCN1CCC(O)(c2ccc(Cl)cc2)CC1)(c1ccccc1)c1ccccc1 [loperamide]
Efflux ratio [5]: > 20% | Transport ratio in mdr1-knockout mice vs control [6]: 10.4

CN1CC[C@]23c4c5ccc(O[C@@H]6O[C@H](C(=O)O)[C@@H](O)[C@H](O)[C@H]6O)c4O[C@H]2[C@@H](O)C=C[C@H]3[C@H]1C5 [Morphine-3-glucuronide, morphine-3-glucuronide]
Time of peak plasma concentration after the end of the morphine infusion (control): 0.2 h | Plasma AUC ratio (morphine glucuronide/morphine) (control, mean ± SD): 5.0 ± 1.2 | Plasma Tmax (control, relative to start of morphine infusion, mean ± SD): 1.2 ± 0.2 h | Delay of time to peak plasma concentration by cyclosporine (cyclosporine vs control): 0.4 h | Plasma AUC ratio (morphine glucuronide/morphine) (with cyclosporine, mean ± SD): 5.3 ± 1.1 | ClE (glucuronide elimination clearance) ([7]; control, median (range)): 8.4 (5.3 to 12.4) L/h | Fraction eliminated (percent of morphine dose eliminated as the glucuronide metabolite) ([7]; control, median (range)): approximately 40% | Fraction eliminated (percent of morphine dose eliminated as the glucuronide metabolite) ([7]; control, median (range), […]): 40.5 (27 to 52) % | Delay time (appearance of the metabolite in plasma) ([7]; control, median (range)): 0.010 (0.003 to 0.09) h | CLEM-3-G (elimination clearance represented by metabolism to morphine-glucuronide) ([7]; control, CLE × percent eliminated as glucuronide, mean ± SD): 39.0 ± 14.8 L/h | VSS of morphine glucuronide ([7]; control, mean ± SD): 15.0 ± 2.5 L | Decrease in median glucuronide elimination clearance by cyclosporine ([7]; cyclosporine vs control): more than 10% | ClE (glucuronide elimination clearance) [7, 15]: 7.5 (3.7 to 14.0) ^@ L/h | Fraction eliminated (percent of morphine dose eliminated as the glucuronide metabolite) [7, 15]: approximately 40% | Fraction eliminated (percent of morphine dose eliminated as the glucuronide metabolite) ([7]; with cyclosporine, median (range), […]): 43.4 (21 to 73) % | Delay time (appearance of the metabolite in plasma) [7, 15]: 0.022 (0.003 to 0.13) ^& h | CLEM-3-G (elimination clearance represented by metabolism to morphine-glucuronide) ([7]; with cyclosporine, CLE × percent eliminated as glucuronide, mean ± SD): 35.3 ± 13.4 L/h | VSS of morphine glucuronide ([7]; with cyclosporine, mean ± SD): 15.0 ± 2.5 L | Clinical effect [8]: no clinical effect

COc1cc2c(cc1OC)CN(CCc1ccc(NC(=O)c3cccc4c(=O)c5cccc(OC)c5[nH]c34)cc1)CC2 [GF120918]
Effect on basolateral to apical flux of morphine [9]: abolished | Increase in morphine antinociception [10]: approximately 3 fold

CN1CC[C@]23c4c5ccc(O)c4O[C@H]2[C@@H](O[C@@H]2O[C@H](C(=O)O)[C@@H](O)[C@H](O)[C@H]2O)C=C[C@H]3[C@H]1C5 [Morphine-6-glucuronide, morphine-6-glucuronide]
Plasma AUC ratio (morphine glucuronide/morphine) (control, mean ± SD): 0.88 ± 0.20 | Plasma AUC ratio (morphine glucuronide/morphine) (with cyclosporine, mean ± SD): 0.85 ± 0.20 | AUC(0-inf) [11]: 117 ± 32 ng·h/mL | Cmax [11]: 24.9 ± 5.2 ng/mL | half-life [11]: 2.8 ± 1.2 h | Vd [7]: 15 ± 2.5 L | Vd ([7]; 0.1 mg/kg): 15 ± 2.5 L | clearance ([7]; 0.1 mg/kg, CLEM-6-G (elimination clearance represented by metabolism to morphine-glucuronide), control, CLE × percent eliminated as glucuronide, mean ± SD): 138 mL/min | clearance ([7]; 0.1 mg/kg, ClE (glucuronide elimination clearance), control, median (range)): 160 mL/min | clearance ([7]; CLEM-6-G (elimination clearance represented by metabolism to morphine-glucuronide), with cyclosporine, CLE × percent eliminated as glucuronide, mean ± SD): 103 mL/min | Fraction eliminated (percent of morphine dose eliminated as the glucuronide metabolite) ([7]; control, median (range), listed as Morphine-6- glucuronide): 8.1 (4.9 to 12.5) % | Fraction eliminated (percent of morphine dose eliminated as the glucuronide metabolite) ([7]; control, median (range), listed as morphine-6-glucuronide): 8.1% | Delay time (appearance of the metabolite in plasma) ([7]; control, median (range)): 0.11 (0.04 to 0.34) h | Decrease in median glucuronide elimination clearance by cyclosporine ([7]; cyclosporine vs control): ~25% | Fraction eliminated (percent of morphine dose eliminated as the glucuronide metabolite) ([7]; with cyclosporine, median (range), listed as Morphine-6- glucuronide): 7.4 (3.3 to 16.6) ^& % | Fraction eliminated (percent of morphine dose eliminated as the glucuronide metabolite) ([7]; with cyclosporine, median (range), listed as morphine-6-glucuronide): 7.4% | Delay time (appearance of the metabolite in plasma) [7, 15]: 0.18 (0.06 to 0.37) h

CN1CC[C@]23c4c5ccc(O)c4O[C@H]2[C@@H](O)C=C[C@H]3[C@H]1C5 [Morphine]
Analgesic effect (thermal stimulus) [12]: negligible analgesic effects | VC (central volume) ([7]; control, mean ± SD): 21.5 ± 4.7 L | Average peripheral volume (VP) during cyclosporine treatment less than control ([7]; cyclosporine vs control, not statistically significant): approximately 11% | VC (central volume) ([7]; with cyclosporine, mean ± SD): 21.5 ± 4.7 L | Time of maximum miosis after the end of the morphine infusion [13]: 1.6 h | Predicted maximum biophase concentration ([14]; after cyclosporine): 41 ± 13 ng/mL | Maximum calculated effect site morphine concentration ([14]; control (abstract)): 7.6 ± 2.9 ng/mL | Predicted maximum biophase concentration ([14]; control): 27 ± 11 ng/mL | Maximum calculated effect site morphine concentration ([14]; with cyclosporine (abstract)): 11.5 ± 3.7 ng/mL
